Source: patent USRE42890E1, “Furazanobenzimidazoles” (Basilea Pharmaceutica AG, priority 2003, dated 2011)
pIC50: −log10 of the molar value.

How the values were obtained:
[1] = system: Jurkat; experiment: MTS proliferation assay, Jurkat; format: cell-based, human; details: 72 h incubation, read-out: MTS proliferation assay IC 50 Jurkat
Method: (§1) Cell lines are cultured in RPMI-1640 tissue culture medium containing either 5% or 10% fetal calf serum, 0.05 mM 2-mercaptoethanol, 2 mM glutamine and penicillin/streptomycin 50 μg/ml (complete medium) (Sigma, Buchs, Switzerland). General growth conditions are 37° C. and 7.5% CO2.
(§2) The following human cell lines (either EGFP transfected or not) are being used: HeLa (ATCC: CCL-2), KB (ATCC: CCL-17), MCF7 (ATCC: HTB-22), SK-BR-3 (ATCC: HTB-30), SK-Mel 1 (ATCC: HTB-67), SK-Mel 28 (ATCC: HTB-72), PC-3 (ATCC: CRL-1435), SW 480 (ATCC: CCL-228), NCl-H460 (ATCC: HTB-177), NCl-H1792 (ATCC: CRL-5895), HT1080 (ATCC: CCL-21), Jurkat (ATCC: TIB-152), Ramos (ATCC: CRL-1596), Raji (ATCC: CCL-86), H9 (ATCC: HTB-176), Hut78 (ATCC: TIB-161), K562 (ATCC: CCL 243), HL-60 (ATCC: CCL 240), U-87MG (ATCC: HTB-14), HepG2 (ATCC: HB-8065), U-2 OS (ATCC: HTB-96), Saos-2 (ATCC: HTB-85), U937 (ATCC: CRL 1593), Hs 578T (ATCC: HTB 126), HBL-100 (ATCC: HTB 124), Molt-4 (ATCC: CRL 1582).
(§3) The assay is performed in 96 well tissue culture plates. The cells (range: 1.5*10^3-10^4) are seeded out in 80 μl complete medium 24 h prior to compound treatment. The test compounds are added in 20 μl complete medium containing max 5% DMSO. The final compound concentrations in the assays are 10 μM, 3 μM, 1 μM and 0.3 μM, respectively. The assay plates are incubated for 72 h at culture conditions. The MTS reagent is prepared according to the manufacturer's protocol (Promega G1111). 20 μl MTS reagent are added to each well, the assay plates are quickly spun and incubated for another 3 h at culture conditions. Subsequently, the plates are shortly shaked and absorption measured with a microplate-reader at 492 nm.

[2] = system: HeLa; experiment: MTS proliferation assay, HeLa; format: cell-based, human; details: 72 h incubation, read-out: MTS proliferation assay IC 50 HeLa
Method: as §1, §2, §3

[3] = system: MRC5; experiment: MTS proliferation assay, MRC5; format: cell-based; details: MRC5, 72 h incubation; read-out: MTS proliferation assay IC 50 MRC5
Method: as §1, §3

[4] = system: adherent cells or suspension cells; experiment: Hoechst 33342 nuclear staining (fraction of apoptotic nuclei); format: cell-based; parameters: key: 0 relating to no activity; 1 relating to weak activity comprising less than 70% of the cells; score 2 relating to strong activity comprising more than 70% of the cells
Method: as §1
This assay is performed in 96 well tissue culture plates. Appropriate number of cells (adherent cells: 3-5*10^3, suspension cells: 8-10*10^3) are being seeded out in 80 μl complete medium. Adherent cells are incubated for 24 h for proper spreading out before addition of test compounds while suspension cells are immediately treated with test compounds after seeding out. The test compounds are added in 20 μl complete medium containing max 5% DMSO. […] After 24 h or 48 h incubation at culture conditions, 10 μl medium containing Hoechst 33342 dye (Sigma B-2261) at 2-5 μg/ml are added to each well. The assay plates are then further incubated for 30 minutes and subsequently analyzed with a standard inverted fluorescence microscope.
The readout allows the determination of the fraction of apoptotic nuclei as well as other morphological criteria specific for apoptosis as a function of the treatment. The following scores are used: 0 relating to no activity, 1 relating to weak activity comprising less than 70% of the cells and score 2 relating to strong activity comprising more than 70% of the cells.

Row | Compound | pIC50 [1] | pIC50 [2] | pIC50 [3] | Hoechst 33342 nuclear staining score ([4]; H460, conc 0.01 μm) | Hoechst 33342 nuclear staining score ([4]; H460, conc 0.1 μm) | Hoechst 33342 nuclear staining score ([4]; H460, conc 1 μm) | Hoechst 33342 nuclear staining score ([4]; HeLa, conc 0.01 μm) | Hoechst 33342 nuclear staining score ([4]; HeLa, conc 0.1 μm) | Hoechst 33342 nuclear staining score ([4]; HeLa, conc 1 μm) | Hoechst 33342 nuclear staining score ([4]; Jily, conc 0.01 μm) | Hoechst 33342 nuclear staining score ([4]; Jily, conc 0.1 μm) | Hoechst 33342 nuclear staining score ([4]; MRC5, conc 0.01 μm) | Hoechst 33342 nuclear staining score ([4]; MRC5, conc 0.1 μm) | Hoechst 33342 nuclear staining score ([4]; MRC5, conc 1 μm) | Hoechst 33342 nuclear staining score ([4]; PBLs, conc 0.01 μm) | Hoechst 33342 nuclear staining score ([4]; PBLs, conc 0.1 μm) | Hoechst 33342 nuclear staining score ([4]; PBLs, conc 1 μm) | Hoechst 33342 nuclear staining score ([4]; Jurkat, conc 0.01 μm) | Hoechst 33342 nuclear staining score ([4]; Jurkat, conc 0.1 μm) | Hoechst 33342 nuclear staining score ([4]; Jurkat, conc 1 μm) | also measured
1 | CON=C(Cn1c(-c2nonc2N)nc2ccccc21)c1cccc(Cl)c1 (mixture of isomers) [Example 37] | 6.00 to 7.00 | 6.00 to 7.00 | 6.00 to 7.00 | 0 | 0 | 0 | 0 | 0 | 0 | 0 | 0 | 0 | 0 | 1 (1 relating to weak activity comprising less than 70% of the cells) | 0 | 0 | 0 |  |  |  | Hoechst 33342 nuclear staining score ([4]; Jily, conc 1 μm): 2 (score 2 relating to strong activity comprising more than 70% of the cells)
2 | CON=C(Cn1c(-c2nonc2N)nc2ccccc21)c1cccc(OC)c1 (mixture of isomers) [Example 25] | 6.00 to 7.00 | < 6.00 | < 6.00 | 0 | 0 | 0 | 0 | 0 | 0 | 0 | 0 | 0 | 0 | 0 | 0 | 0 | 0 | 0 | 0 | 1 (1 relating to weak activity comprising less than 70% of the cells) | Hoechst 33342 nuclear staining score ([4]; Jily, conc 1 μm): 0
3 | Nc1nonc1-c1nc2ccccc2n1CC(=O)c1ccc(-c2ccccc2)cc1 [Example 26] | < 6.00 | < 6.00 | < 6.00 | 0 | 0 | 0 | 0 | 0 | 0 | 0 | 0 | 0 | 0 | 0 | 0 | 0 | 0 | 0 | 0 | 0 | Hoechst 33342 nuclear staining score ([4]; Jily, conc 1 μm): 0

Continued, in another order:

Row | pIC50 [1] | pIC50 [2] | Compound | pIC50 [3] | Hoechst 33342 nuclear staining score ([4]; H460, conc 0.01 μm) | Hoechst 33342 nuclear staining score ([4]; H460, conc 0.1 μm) | Hoechst 33342 nuclear staining score ([4]; H460, conc 1 μm) | Hoechst 33342 nuclear staining score ([4]; HeLa, conc 0.01 μm) | Hoechst 33342 nuclear staining score ([4]; HeLa, conc 0.1 μm) | Hoechst 33342 nuclear staining score ([4]; HeLa, conc 1 μm) | Hoechst 33342 nuclear staining score ([4]; Jily, conc 0.01 μm) | Hoechst 33342 nuclear staining score ([4]; Jily, conc 0.1 μm) | Hoechst 33342 nuclear staining score ([4]; MRC5, conc 0.01 μm) | Hoechst 33342 nuclear staining score ([4]; MRC5, conc 0.1 μm) | Hoechst 33342 nuclear staining score ([4]; MRC5, conc 1 μm) | Hoechst 33342 nuclear staining score ([4]; PBLs, conc 0.01 μm) | Hoechst 33342 nuclear staining score ([4]; PBLs, conc 0.1 μm) | Hoechst 33342 nuclear staining score ([4]; PBLs, conc 1 μm) | Hoechst 33342 nuclear staining score ([4]; Jurkat, conc 0.01 μm) | Hoechst 33342 nuclear staining score ([4]; Jurkat, conc 0.1 μm) | Hoechst 33342 nuclear staining score ([4]; Jurkat, conc 1 μm) | also measured
4 | 6.00 to 7.00 | 6.00 to 7.00 | CON=C(Cn1c(-c2nonc2N)nc2ccccc21)c1ccc(OC)cc1 (mixture of isomers) [Example 38] | < 6.00 | 0 | 0 | 0 | 0 | 0 | 0 | 0 | 0 | 0 | 0 | 0 | 0 | 0 | 0 | 0 | 0 | 0 | Hoechst 33342 nuclear staining score ([4]; Jily, conc 1 μm): 0
5 | 6.00 to 7.00 | 6.00 to 7.00 | COc1cccc(C(=O)Cn2c(-c3nonc3N)nc3ccccc32)c1 [Example 23] | 6.00 to 7.00 |  |  |  | 0 | 0 | 2 (score 2 relating to strong activity comprising more than 70% of the cells) |  |  | 0 | 0 | 0 | 0 | 0 | 0 | 0 | 0 | 2 (score 2 relating to strong activity comprising more than 70% of the cells) | 
6 | < 6.00 | < 6.00 | Nc1nonc1-c1nc2ccccc2n1CC(=NO)c1ccc(Cl)cc1 (mixture of isomers) [Example 21] | < 6.00 | 0 | 0 | 0 | 0 | 0 | 0 |  |  | 0 | 0 | 0 | 0 | 0 | 0 | 0 | 0 | 0 | 
7 | < 6.00 | < 6.00 | CON=C(Cn1c(-c2nonc2N)nc2ccccc21)c1ccc(-c2ccccc2)cc1 (mixture of isomers) [Example 28] | < 6.00 | 0 | 0 | 0 | 0 | 0 | 0 | 0 | 0 | 0 | 0 | 0 | 0 | 0 | 0 | 0 | 0 | 0 | Hoechst 33342 nuclear staining score ([4]; Jily, conc 1 μm): 0
8 | < 6.00 | < 6.00 | CCN(CC)c1ccc(C(=O)Cn2c(-c3nonc3N)nc3ccccc32)cc1 [Example 39] | < 6.00 | 0 | 0 | 0 | 0 | 0 | 0 | 0 | 0 | 0 | 0 | 0 | 0 | 0 | 0 | 0 | 0 | 0 | Hoechst 33342 nuclear staining score ([4]; Jily, conc 1 μm): 0
